The record followed here is US11014911B2, “CDK2 inhibitors” (Pfizer Inc., priority 2019, dated 2021).

The experiment has as its target CDK2/Cyclin E1 full length (Homo sapiens (Human), UniProt P24941). Kind of experiment: CDK2/Cyclin E1 full length mobility shift assay. Format: biochemical.
What is called Ki is a dissociation constant, usually derived from enzyme kinetics or from competition with a known ligand. For the compound `CC(C)NC(=O)O[C@@H]1CC[C@H](c2cc(NC(=O)C3COc4ccccc43)n[nH]2)C1` (single isomer, unassigned) [Example 57], the inhibition constant Ki is 3.54 nM. For `CC(CC(F)(F)F)NC(=O)O[C@@H]1CC[C@H](c2cc(NC(=O)Cc3ccon3)n[nH]2)C1` (single isomer, unassigned) [Example 63] the value was 1.25 nM. For `CC(CC(F)(F)F)NC(=O)O[C@@H]1CC[C@H](c2cc(NC(=O)Cc3ccn(C)n3)n[nH]2)C1` (single isomer, unassigned) [Example 65] the value was 2.21 nM; for `COc1cnc(CC(=O)Nc2cc([C@H]3CC[C@@H](OC(=O)NC(C)CC(F)(F)F)C3)[nH]n2)cn1` (single isomer, unassigned) [Example 67], 1.5 nM; for `Cc1ccc(C(=O)Nc2cc([C@H]3CC[C@@H](OC(=O)NC(C)CC(F)(F)F)C3)[nH]n2)cn1` (single isomer, unassigned) [Example 69], 4.26 nM. Turning to `Cc1cnc(CC(=O)Nc2cc([C@H]3CC[C@@H](OC(=O)NC(C)CC(F)(F)F)C3)[nH]n2)cn1` (single isomer, unassigned) [Example 73], the Ki was 2.31 nM. For `CC(CC(F)(F)F)NC(=O)O[C@@H]1CC[C@H](c2cc(NC(=O)Cc3ccno3)n[nH]2)C1` (single isomer, unassigned) [Example 85] the value was 1.06 nM; for `COCCn1nccc1C(=O)Nc1cc([C@H]2CC[C@@H](OC(=O)NC(C)CC(F)(F)F)C2)[nH]n1` (single isomer, unassigned) [Example 87], 1.32 nM; for `COCCn1nccc1C(=O)Nc1cc([C@H]2CC[C@@H](OC(=O)NC(C)CC(F)(F)F)C2)[nH]n1` (single isomer, unassigned) [Example 88], 0.15 nM. For `CC(CC(F)(F)F)N(C)C(=O)O[C@@H]1CC[C@H](c2cc(NC(=O)Cc3ccno3)n[nH]2)C1` (single isomer, unassigned) [Example 89] the value was 0.85 nM; for `Cc1cnc(CC(=O)Nc2cc([C@H]3CC[C@@H](OC(=O)NC(C)CC(F)F)C3)[nH]n2)o1` (single isomer, unassigned) [Example 96], 2.05 nM.

Regarding `COc1cc(CC(=O)Nc2cc([C@H]3CC[C@@H](OC(=O)NC(C)CC(F)F)C3)[nH]n2)ccn1` (single isomer, unassigned) [Example 99], the inhibition constant (Ki) came out at 0.09 nM. In the case of `CC1(NC(=O)O[C@@H]2CC[C@H](c3cc(NC(=O)Cc4ccccc4)n[nH]3)C2)CCOC1` (single isomer, unassigned) [Example 125] it was 0.34 nM; in that of `COc1ccc(CC(=O)Nc2cc([C@H]3CC[C@@H](OC(=O)N4CCC4C)C3)[nH]n2)cn1` (single isomer, unassigned) [Example 152], 1.06 nM; in that of `COc1cc(CC(=O)Nc2cc([C@H]3CC[C@@H](OC(=O)N4CCC4C)C3)[nH]n2)ccn1` (single isomer, unassigned) [Example 154], 1.77 nM.

In the case of `COc1cc(CC(=O)Nc2cc([C@H]3CC[C@@H](OC(=O)N4C[C@@H](C#N)[C@@H]4C)C3)[nH]n2)ccn1` (single isomer, unassigned) [Example 156], the inhibition constant (Ki) was determined as 2.21 nM.

On to `COc1ccc(CC(=O)Nc2cc([C@H]3CC[C@@H](OC(=O)N4C[C@@H](C#N)[C@@H]4C)C3)[nH]n2)cn1` (single isomer, unassigned) [Example 157], for which the inhibitory constant (Ki) is 1.86 nM. In the case of `Cc1ncc(CC(=O)Nc2cc([C@H]3CC[C@@H](OC(=O)N4C[C@@H](C#N)[C@@H]4C)C3)[nH]n2)s1` (single isomer, unassigned) [Example 159] it was 3.63 nM.

Regarding `C[C@H]1[C@H](C#N)CN1C(=O)O[C@@H]1CC[C@H](c2cc(NC(=O)Cc3ccccc3)n[nH]2)C1` (single isomer, unassigned) [Example 162], the Ki came out at 3.01 nM.

In the case of `CCCNC(=O)O[C@@H]1CC[C@H](c2cc(NC(=O)Cc3ccccc3S(C)(=N)=O)n[nH]2)C1` (single isomer, unassigned) [Example 201], the inhibition constant (Ki) stood at 1.91 nM. In the case of `CCCNC(=O)O[C@@H]1CC[C@H](c2cc(NC(=O)Cc3ccccc3S(C)(=N)=O)n[nH]2)C1` (single isomer, unassigned) [Example 202] it was 1.85 nM; in that of `COc1ccc(S(C)(=O)=O)c(CC(=O)Nc2cc([C@H]3CC[C@@H](OC(=O)NC(C)C(F)(F)F)C3)[nH]n2)c1` (single isomer, unassigned) [Example 292], 0.86 nM.

As for `CC[C@H](C)NC(=O)O[C@@H]1CC[C@H](c2cc(NC(=O)Cc3ccccc3S(C)(=N)=O)n[nH]2)C1` (single isomer, unassigned) [Example 368], the Ki was 0.41 nM. In the case of `CC[C@H](C)NC(=O)O[C@@H]1CC[C@H](c2cc(NC(=O)Cc3ccccc3S(C)(=N)=O)n[nH]2)C1` (single isomer, unassigned) [Example 369] it was 0.84 nM; in that of `C[C@H](F)[C@H](C)NC(=O)O[C@@H]1CC[C@H](c2cc(NC(=O)Cc3cnn(C)c3)n[nH]2)C1` (single isomer, unassigned) [Example 381, (1R,3S)-3-(3-{[(1-methyl-1H-pyrazol-4-yl)acetyl]amino}-1H-pyrazol-5-yl)cyclopentyl [(2S*,3S*)-3-fluorobutan-2-yl]carbamate], 3.11 nM. As to `COc1cc(CC(=O)Nc2cc([C@H]3CC[C@@H](OC(=O)N[C@@H](C)[C@H](C)F)C3)[nH]n2)ccn1` (single isomer, unassigned) [Example 384, (1R,3S)-3-(3-{[(2-methoxypyridin-4-yl)acetyl]amino}-1H-pyrazol-5-yl)cyclopentyl [(2S*,3S*)-3-fluorobutan-2-yl]carbamate], the Ki was 1.24 nM. For `CC(CC(F)F)NC(=O)O[C@@H]1CC[C@H](c2cc(NC(=O)Cc3cnn(C)c3)n[nH]2)C1` (single isomer, unassigned) [Example 387] the value was 0.3 nM; for `Cc1ncc(CC(=O)Nc2cc([C@H]3CC[C@@H](OC(=O)NC(C)C(C)(F)F)C3)[nH]n2)s1` (single isomer, unassigned) [Example 390], 3.74 nM; for `COc1cc(CC(=O)Nc2cc([C@H]3CC[C@@H](OC(=O)NC(C)C(C)(F)F)C3)[nH]n2)ccn1` (single isomer, unassigned) [Example 392], 3.14 nM. Turning to `Cc1c(CC(=O)Nc2cc([C@H]3CC[C@@H](OC(=O)NC(C)CC(F)(F)F)C3)[nH]n2)cnn1C` (single isomer, unassigned) [Example 400], the inhibition constant Ki turned out to be 1.29 nM. For `CC(CC(F)(F)F)NC(=O)O[C@@H]1CC[C@H](c2cc(NC(=O)Cc3cnn(C(C)C)c3)n[nH]2)C1` (single isomer, unassigned) [Example 407] the value was 1.16 nM; for `CC(CC(F)(F)F)NC(=O)O[C@@H]1CC[C@H](c2cc(NC(=O)c3ccnn3CCN(C)C)[nH]n2)C1` (single isomer, unassigned) [Example 409], 4.15 nM; for `CC(CC(F)(F)F)N(C)C(=O)O[C@@H]1CC[C@H](c2cc(NC(=O)c3cnnn3C)n[nH]2)C1` (single isomer, unassigned) [Example 411], 2.58 nM. In the case of `CC(CC(F)(F)F)N(C)C(=O)O[C@@H]1CC[C@H](c2cc(NC(=O)c3cnnn3C)n[nH]2)C1` (single isomer, unassigned) [Example 412] it was 0.19 nM. In the case of `CC1(NC(=O)O[C@@H]2CC[C@H](c3cc(NC(=O)Cc4ccno4)n[nH]3)C2)CCOC1` (single isomer, unassigned) [Example 474] it was 0.44 nM.

Turning to `Cc1cnc(CC(=O)Nc2cc([C@H]3CC[C@@H](OC(=O)NC4(C)CCOC4)C3)[nH]n2)o1` (single isomer, unassigned) [Example 478], the Ki stood at 1.13 nM.

As for `COc1cc(C(=O)Nc2cc([C@H]3CC[C@@H](OC(=O)NC4(C)CCOC4)C3)[nH]n2)n(C)n1` (single isomer, unassigned) [Example 479], the inhibition constant Ki stood at 0.89 nM. In the case of `COc1cc(C(=O)Nc2cc([C@H]3CC[C@@H](OC(=O)NC4(C)CCOC4)C3)[nH]n2)n(C)n1` (single isomer, unassigned) [Example 480] it was 2.01 nM. In the case of `COc1ccc(CC(=O)Nc2cc([C@H]3CC[C@@H](OC(=O)NC4(C)CCOC4)C3)[nH]n2)cc1` (single isomer, unassigned) [Example 483], the Ki is 0.32 nM.

With `COc1cnc(CC(=O)Nc2cc([C@H]3CC[C@@H](OC(=O)NC4(C)CCOC4)C3)[nH]n2)cn1` (single isomer, unassigned) [Example 485], the Ki stood at 1.41 nM.

Turning to `COc1cnc(CC(=O)Nc2cc([C@H]3CC[C@@H](OC(=O)NC4(C)CCOC4)C3)[nH]n2)cn1` (single isomer, unassigned) [Example 486], the Ki amounted to 1.46 nM.

As for `COCc1cc(C(=O)Nc2cc([C@H]3CC[C@@H](OC(=O)NC4(C)CCOC4)C3)[nH]n2)n(C)n1` (single isomer, unassigned) [Example 488], the inhibition constant Ki came to 1.4 nM.

For `CC1(NC(=O)O[C@@H]2CC[C@H](c3cc(NC(=O)CC4COc5ccccc54)n[nH]3)C2)CCOC1` (single isomer, unassigned) [Example 489], the Ki turned out to be 3.71 nM.

As for `CC1(NC(=O)O[C@@H]2CC[C@H](c3cc(NC(=O)CC4COc5ccccc54)n[nH]3)C2)CCOC1` (single isomer, unassigned) [Example 490], the Ki is 3.68 nM. For `CC1(NC(=O)O[C@@H]2CC[C@H](c3cc(NC(=O)CC4COc5ccccc54)n[nH]3)C2)CCOC1` (single isomer, unassigned) [Example 492] the value was 2.39 nM; for `Cn1ncc(CC(=O)Nc2cc([C@H]3CC[C@@H](OC(=O)NC4(C)CCOC4)C3)[nH]n2)c1C(F)(F)F` (single isomer, unassigned) [Example 495], 1.79 nM. For the compound `Cn1ncc(CC(=O)Nc2cc([C@H]3CC[C@@H](OC(=O)NC4(C)CCOC4)C3)[nH]n2)c1C(F)(F)F` (single isomer, unassigned) [Example 496], the Ki came to 2.25 nM. For `O=C(Cc1cc(F)cc(F)c1)Nc1cc([C@@H]2CC[C@H](OC(=O)NCC3CCCOC3)C2)[nH]n1` (single isomer, unassigned) [Example 516] the value was 3.24 nM; for `CCC(CO)CNC(=O)O[C@@H]1CC[C@H](c2cc(NC(=O)Cc3cnc(C)o3)n[nH]2)C1` (single isomer, unassigned) [Example 526], 3.95 nM.
